In brackets after ≈: the same amount, converted by molar mass. Where two headings read alike, the source gives them in different places.
Experiments:
B. subtilis ATCC 6633 [1] = experiment: MIC and MBC determination; assay type: cell-based; settings: Bacillus subtilis, ATCC6633, B. subtilis
C. albicans (ATCC 10231) [2] = experiment: MIC and MFC determination; assay type: cell-based
[3] = tested on: P. aeruginosa ATCC BAA-2111; experiment: MIC and MBC against multidrug-resistant strains; assay type: cell-based; settings: Pseudomonas aeruginosa, ATCCBAA2111, P. aeruginosa ATCC BAA-2111
Text: (§1) Norfloxacin was used as a positive control for the multidrug resistance study.
(§2) The experiment was repeating for three-times.

E. coli ATCC BAA-196 [4] = experiment: MIC and MBC against multidrug-resistant strains; assay type: cell-based; settings: Escherichia coli, ATCCBAA196, E. coli ATCC BAA-196
Text: as §1, §2

S. aureus ATCC 43300 [5] = experiment: MIC and MBC against multidrug-resistant strains; assay type: cell-based; settings: Staphylococcus aureus, ATCC43300, S. aureus ATCC 43300
Text: as §1, §2

S. aureus ATCC 33591 [6] = experiment: MIC and MBC against multidrug-resistant strains; assay type: cell-based; settings: Staphylococcus aureus, ATCC33591, S. aureus ATCC 33591
Text: as §1, §2

E. coli ATCC 25922 = experiment: MIC and MBC determination; assay type: cell-based; settings: Escherichia coli, ATCC25922, E. coli
[7] = tested on: CD4+ and CD8+ T lymphocytes; experiment: In vivo T lymphocyte subsets from peripheral blood, flow cytometry; settings: mice
Text: Activation of immune cells as CD4^+ and CD8^+ T cells is one possible mechanism of a drug’s immune stimulus activity. An increase in these cells is thought to be a good indicator of an active immune response to infections. So, our work extended to study the effect of the most promising derivatives (2d, 8, and 11) on T lymphocyte subsets (CD4^+ and CD8^+) from peripheral blood, and determined the relative level in model mice that analyzed by flow cytometry after the period of treating.
(§3) In vitro intracellular killing activities for the most promising six derivatives 2a, 2b, 2d, 3a, 8, and 11 were performed according to reported methods.

[8] = tested on: Salmonella typhi (S. typhi ATCC 6539); experiment: microbe, parasite or virus in culture; assay type: cell-based; settings: Salmonella enterica, Salmonella typhi
[9] = tested on: P. aeruginosa ATCC BAA-2111; experiment: Inhibition zone against multidrug-resistant bacteria; assay type: cell-based; settings: MDRB P. aeruginosa ATCC BAA-2111
Text: as §1
(§4) The antimicrobial activity performed at the bacteriology laboratory, Botany and Microbiology Department, Faculty of Science, Al-Azhar University, Cairo, Egypt. The inhibition zone (IZ) of the tested derivatives expressed as the diameter (mm) according to the agar plate diffusion method.

E. coli ATCC BAA-196 [10] = experiment: as above; assay type: cell-based; settings: MDRB E. coli ATCC BAA-196
Text: as §1, §4

S. aureus ATCC 43300 [11] = experiment: as above; assay type: cell-based; settings: MDRB S. aureus ATCC 43300
Text: as §1, §4

S. aureus ATCC 33591 [12] = experiment: as above; assay type: cell-based; settings: MDRB S. aureus ATCC 33591
Text: as §1, §4

S. aureus ATCC 29213 [13] = experiment: Inhibition zone, paper disk/agar diffusion; assay type: cell-based; settings: S. aureus; Na = no activity
Summary of the method: (§5)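 Values are inhibition zone diameters in millimetres. These were measured after applying the derivatives to agar plates by diffusion, and norfloxacin served as the reference drug.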

S. typhi ATCC 6539 = experiment: Inhibition zone, paper disk/agar diffusion; assay type: cell-based; settings: S. typhi; Na = no activity
Summary of the method: as §5

E. faecalis ATCC 29212 [14] = experiment: Inhibition zone, paper disk/agar diffusion; assay type: cell-based; settings: E. faecalis; Na = no activity
Summary of the method: as §5

C. albicans (ATCC 10231) [15] = experiment: Inhibition zone, paper disk/agar diffusion; assay type: cell-based; settings: Na = no activity
Summary of the method: as §5

P. aeruginosa ATCC 27853 [16] = experiment: Inhibition zone, paper disk/agar diffusion; assay type: cell-based; settings: P. aeruginosa; Na = no activity
Summary of the method: as §5

B. subtilis ATCC 6633 [17] = experiment: Inhibition zone, paper disk/agar diffusion; assay type: cell-based; settings: B. subtilis; Na = no activity
Summary of the method: as §5

[18] = tested on: F. oxysporum (RCMB 008002); experiment: Inhibition zone, paper disk/agar diffusion; assay type: cell-based; settings: Na = no activity
Summary of the method: as §5

neutrophils = experiment: In vitro intracellular killing, nitro blue tetrazolium (NBT) reduction assay; assay type: cell-based
Protocol: One of the broad methods used for determining immune disorders for patients in hospitals is the NBT test to measure their immune responses. The reduction in NBT dye provides information about the phagocytic and intracellular killing functions of neutrophils, which are important for microbiocidal activity. The most promising derivatives (2a, 2b, 2d, 3a, 8, and 11) were evaluated against in vitro intracellular killing activities using a nitro blue tetrazolium (NBT) reduction assay and the obtained results expressed in percentage (%): increasing the percentage led to an improvement in the killing ability of the neutrophils used as innate immunity.
as §3

P. aeruginosa ATCC 27853 [19] = experiment: MIC and MBC determination; assay type: cell-based; settings: Pseudomonas aeruginosa, ATCC27853, P. aeruginosa
S. aureus DNA gyrase = S. aureus DNA gyrase (Staphylococcus aureus, UniProt P0A0K8+P20831); experiment: In vitro DNA gyrase supercoiling enzymatic assay; assay type: biochemical
[20] = tested on: F. oxysporum (RCMB 008002); experiment: MIC and MFC determination; assay type: cell-based
E. faecalis ATCC 29212 [21] = experiment: MIC and MBC determination; assay type: cell-based; settings: Enterococcus faecalis, ATCC29212, E. faecalis
S. aureus ATCC 29213 [22] = experiment: MIC and MBC determination; assay type: cell-based; settings: S. aureus
[23] = molecular target: E. coli DHFR (dihydrofolate reductase) (Escherichia coli, UniProt P0ABQ4); experiment: In vitro DHFR enzymatic assay; assay type: biochemical
spleen and thymus = experiment: In vivo immunomodulation: immune organ weight and indexes; set-up: Spleen index: unit not given here; settings: mice
Text: Both the spleen and thymus have important antibacterial and fungal immune organ responses, and any change in weight, and indexes can reflect the level of immune regulation. Additionally, the relative spleen and thymus indexes are important indices for nonspecific immunity and potential immunomodulatory compounds that increase the spleen and thymus weight. This increase is due to immune cells’ stimulation in the spleen and thymus. […]

Chain of E. coli DHFR (dihydrofolate reductase) (P0ABQ4 whole entry): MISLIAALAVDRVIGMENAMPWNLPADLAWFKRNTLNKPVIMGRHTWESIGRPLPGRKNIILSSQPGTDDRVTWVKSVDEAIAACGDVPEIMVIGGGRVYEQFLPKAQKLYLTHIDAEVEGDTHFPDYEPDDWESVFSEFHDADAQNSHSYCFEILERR
Chain of S. aureus DNA gyrase (P20831 whole entry): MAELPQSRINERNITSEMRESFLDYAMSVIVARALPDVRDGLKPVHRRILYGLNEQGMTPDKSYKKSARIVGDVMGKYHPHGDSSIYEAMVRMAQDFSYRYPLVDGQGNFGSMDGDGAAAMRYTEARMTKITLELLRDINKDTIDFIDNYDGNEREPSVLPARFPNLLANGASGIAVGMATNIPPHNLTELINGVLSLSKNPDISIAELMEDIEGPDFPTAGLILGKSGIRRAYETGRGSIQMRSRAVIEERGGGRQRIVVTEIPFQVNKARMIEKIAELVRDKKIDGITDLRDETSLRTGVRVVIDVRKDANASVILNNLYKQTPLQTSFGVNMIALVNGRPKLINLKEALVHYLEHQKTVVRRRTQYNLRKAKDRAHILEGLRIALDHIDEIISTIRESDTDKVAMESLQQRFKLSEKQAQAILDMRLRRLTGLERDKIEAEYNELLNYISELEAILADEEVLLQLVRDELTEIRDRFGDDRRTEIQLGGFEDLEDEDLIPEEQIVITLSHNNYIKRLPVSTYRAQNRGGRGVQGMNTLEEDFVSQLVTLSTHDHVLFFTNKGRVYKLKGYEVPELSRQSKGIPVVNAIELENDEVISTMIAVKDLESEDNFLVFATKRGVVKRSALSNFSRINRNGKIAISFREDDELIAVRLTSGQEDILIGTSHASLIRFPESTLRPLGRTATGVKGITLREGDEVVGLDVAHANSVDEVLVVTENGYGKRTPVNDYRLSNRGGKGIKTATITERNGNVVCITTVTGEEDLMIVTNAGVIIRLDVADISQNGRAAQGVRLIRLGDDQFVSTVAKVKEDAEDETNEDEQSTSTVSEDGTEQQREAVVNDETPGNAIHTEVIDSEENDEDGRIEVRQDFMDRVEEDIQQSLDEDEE
Chain of S. aureus DNA gyrase (P0A0K8 whole entry): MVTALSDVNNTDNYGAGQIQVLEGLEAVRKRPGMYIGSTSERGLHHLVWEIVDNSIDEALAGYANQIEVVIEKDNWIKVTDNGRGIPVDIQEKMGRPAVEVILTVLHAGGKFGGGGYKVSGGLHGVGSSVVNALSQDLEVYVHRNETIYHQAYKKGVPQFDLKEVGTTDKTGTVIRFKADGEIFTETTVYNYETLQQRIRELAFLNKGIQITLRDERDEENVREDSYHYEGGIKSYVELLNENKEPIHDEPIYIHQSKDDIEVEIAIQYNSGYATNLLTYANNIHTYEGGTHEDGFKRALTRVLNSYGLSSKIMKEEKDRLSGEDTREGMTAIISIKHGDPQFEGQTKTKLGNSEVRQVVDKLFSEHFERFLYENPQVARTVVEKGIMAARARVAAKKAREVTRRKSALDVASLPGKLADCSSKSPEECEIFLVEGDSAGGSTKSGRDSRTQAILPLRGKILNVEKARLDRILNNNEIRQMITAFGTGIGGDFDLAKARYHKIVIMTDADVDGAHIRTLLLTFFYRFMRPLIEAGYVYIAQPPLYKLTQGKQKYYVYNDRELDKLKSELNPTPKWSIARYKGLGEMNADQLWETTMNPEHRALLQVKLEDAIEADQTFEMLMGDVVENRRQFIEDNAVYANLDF

Cc1cc(C)n(-c2ccc(S(=O)(=O)NC(=N)N)cc2)c(=O)c1C#N [Compound 8, N-Carbamimidoyl-4-(3-cyano-4,6-dimethyl-2-oxopyridin-1(2H)-yl) benzenesulfonamide]
MBC (B. subtilis ATCC 6633 [1]; read-out: MBC): 30.6 ± 1.78 µM (≈ 10.6 µg/mL) | MIC (B. subtilis ATCC 6633 [1]; read-out: MIC): 16.1 ± 0.54 µM (≈ 5.57 µg/mL) | MFC/MIC (C. albicans (ATCC 10231) [2]): <2 | MFC (C. albicans (ATCC 10231) [2]; Candida albicans, ATCC10231, read-out: MFC): 81.4 ± 0.84 µM (≈ 28.1 µg/mL) | MIC (C. albicans (ATCC 10231) [2]; Candida albicans, ATCC10231, read-out: MIC): 45.2 ± 0.54 µM (≈ 15.6 µg/mL) | MBC ([3]; read-out: MBC): 45.2 ± 0.87 µM (≈ 15.6 µg/mL) | MIC ([3]; read-out: MIC): 22.6 ± 0.98 µM (≈ 7.81 µg/mL) | MBC (E. coli ATCC BAA-196 [4]; read-out: MBC): 53.56 ± 0.41 µM (≈ 18.5 µg/mL) | MIC (E. coli ATCC BAA-196 [4]; read-out: MIC): 26.8 ± 0.65 µM (≈ 9.25 µg/mL) | MBC (S. aureus ATCC 43300 [5]; read-out: MBC): 34.36 ± 0.24 µM (≈ 11.9 µg/mL) | MIC (S. aureus ATCC 43300 [5]; read-out: MIC): 18.1 ± 0.84 µM (≈ 6.25 µg/mL) | MBC (S. aureus ATCC 33591 [6]; read-out: MBC): 46.3 ± 0.58 µM (≈ 16 µg/mL) | MIC (S. aureus ATCC 33591 [6]; read-out: MIC): 25.7 ± 0.36 µM (≈ 8.88 µg/mL) | MBC (E. coli ATCC 25922; read-out: MBC): 36.2 ± 0.42 µM (≈ 12.5 µg/mL) | MIC (E. coli ATCC 25922; read-out: MIC): 22.6 ± 0.42 µM (≈ 7.81 µg/mL) | T cells CD4+ [7]: 78.70 ± 0.56% | T cells CD8+ [7]: 18.44 ± 0.2% | MBC ([8]; read-out: MBC): 19.19 ± 0.14 µM (≈ 6.63 µg/mL) | MIC ([8]; read-out: MIC): 11.3 ± 0.75 µM (≈ 3.9 µg/mL) | Mean Diameter of Inhibition Zone [9]: 21 ± 0.63 mm | Mean Diameter of Inhibition Zone (E. coli ATCC BAA-196 [10]): 20 ± 0.74 mm | Mean Diameter of Inhibition Zone (S. aureus ATCC 43300 [11]): 22 ± 0.5 mm | Mean Diameter of Inhibition Zone (S. aureus ATCC 33591 [12]): 15 ± 0.33 mm | Mean Diameter of the Inhibition Zone (S. aureus ATCC 29213 [13]): 26 ± 0.14 mm | Mean Diameter of the Inhibition Zone (S. typhi ATCC 6539): 23 ± 0.11 mm | Mean Diameter of the Inhibition Zone (E. faecalis ATCC 29212 [14]): 25 ± 0.33 mm | Mean Diameter of the Inhibition Zone (C. albicans (ATCC 10231) [15]): 24 ± 0.30 mm | Mean Diameter of the Inhibition Zone (P. aeruginosa ATCC 27853 [16]): 25 ± 0.85 mm | Mean Diameter of the Inhibition Zone (B. subtilis ATCC 6633 [17]): 27 ± 0.50 mm | Mean Diameter of the Inhibition Zone [18]: 20 ± 0.82 mm | Intracellular Killing Activity (neutrophils): 136.5 ± 0.3% | MBC (P. aeruginosa ATCC 27853 [19]; read-out: MBC): 172 ± 1.95 µM (≈ 59.4 µg/mL) | MIC (P. aeruginosa ATCC 27853 [19]; read-out: MIC): 90.5 ± 1.07 µM (≈ 31.3 µg/mL) | IC50 (S. aureus DNA gyrase): 39.1 ± 1.72 µM | MFC/MIC [20]: <2 | MFC ([20]; Fusarium oxysporum, RCMB008002, read-out: MFC): 136 ± 1.98 µM (≈ 46.9 µg/mL) | MIC ([20]; Fusarium oxysporum, RCMB008002, read-out: MIC): 90.48 ± 0.84 µM (≈ 31.3 µg/mL) | MBC (E. faecalis ATCC 29212 [21]; read-out: MBC): 19.19 ± 0.18 µM (≈ 6.63 µg/mL) | MIC (E. faecalis ATCC 29212 [21]; read-out: MIC): 11.3 ± 0.52 µM (≈ 3.9 µg/mL) | MBC (S. aureus ATCC 29213 [22]): 10.71 ± 0.36 µM (≈ 3.7 µg/mL) | MIC (S. aureus ATCC 29213 [22]): 5.64 ± 0.58 µM (≈ 1.95 µg/mL) | MBC (S. aureus ATCC 29213 [22]; Staphylococcus aureus, ATCC29213, read-out: MBC): 10.7 µM (≈ 3.7 µg/mL) | MIC (S. aureus ATCC 29213 [22]; Staphylococcus aureus, ATCC29213, read-out: MIC): 5.64 µM (≈ 1.95 µg/mL) | IC50 [23]: 12.3 ± 0.73 µM | Spleen index (spleen and thymus): 0.010 ± 0.00 | Spleen weight (spleen and thymus): 200 ± 0.025 mg | Thymus index (spleen and thymus): 0.537 ± 0.14 mg/g | Thymus weight (spleen and thymus): 13.42 ± 0.46 mg

From PMC7915026, “Sulfaguanidine Hybrid with Some New Pyridine-2-One Derivatives: Design, Synthesis, and Antimicrobial Activity against Multidrug-Resistant Bacteria as Dual DNA Gyrase and DHFR Inhibitors” (Antibiotics, 2021)
